Test results published in US20200068890A1 (Person to Whom the Inventor is Obligated to Assign, priority 2017, published 2020).
Where two headings read alike, the source gives them in different places.

How the values were obtained:
[1] = test system: human liver cells (HepG2); experiment: MTT viability assay; details: for % viability 1 / % viability 2 / % viability 3: 48 hrs
Description: (§1) Cells were harvested and resuspended in growth media (5-10 ml) to count. Cells were diluted to the appropriate concentration (5×10^3), and seeded into 96-well plates as follows: (a) 50 μl of cells per well, (b) 100 μl of growth media in the Blank wells, (c) 100 μl PBS in outer wells (to prevent dehydration of media from the cells). Cells were incubated overnight at 37° C. (5% CO2).
(§2) Compounds were prepared as serial dilutions in growth media. Each treatment concentration was performed in triplicate. 50 μl/well of prepared compound was added to cells.
(§3) A no treatment triplicate (100% viability) was also included by adding 50 μl of growth media to cells. Plates were returned to the incubator for 48 hrs.
(§4) MTT powder in 1×PBS was prepared at 5 mg/ml and filter sterilised. MTT was added to serum-free media to a final concentration of 1 mg/ml. 100 μl of the MTT solution (1 mg/ml) was added to each well, including 0 μM and blank wells. Plates were incubated at 37° C. in incubator for 3 hrs. Following incubation, the media was removed from wells without disrupting the purple crystals formed. 100 μl of DMSO was added to each well using a multichannel pipette. The plates were shaken on the plate shaker until all the crystals have dissolved. The absorbance was measured at 570 nm using a plate reader. The data was analysed using Microsoft Excel. For each treatment concentration the average was calculated, the blank was subtracted and the cell viability was determined as a percentage of the no treatment control (DMSO vehicle control).

[2] = test system: human kidney cells (HEK293); experiment: MTT viability assay; details: for % Viability Remaining 1 / % Viability Remaining 2 / % Viability Remaining 3: 48 hrs
Description: as §1, §2, §3, §4

[3] = test system: Klebsiella pneumoniae 13368; experiment: Broth microdilution MIC; type: cell-based
Description: (§5) Assays were carried out by a broth microdilution method using a 96-well plate according to guidelines defined by the European Committee on Antimicrobial Susceptibility Testing as described here. Overnight cultures of strains were grown in tryptic soy broth (TSB) at 37° C. The overnight cultures were diluted to a concentration of 1×10^6 bacteria/ml (OD600=0.01) in TSB media. To each well on 96 well plates, 100 μl of bacterially infected media at a concentration of 1×10^6/ml and compounds at various concentrations were added. An uninfected control (i.e. no bacteria) was also included. The plates were incubated at 37° C. wrapped in parafilm for 20 hrs. The growth was assessed by measuring the absorbance at 600 nm. The minimum inhibitory concentration (MIC) was determined to be the lowest concentration of compound that inhibits visible bacterial growth.

[4] = test system: EMRSA-16; experiment: Broth microdilution MIC; type: cell-based
Description: as §5

[5] = test system: MSSA 9144; experiment: Broth microdilution MIC; type: cell-based; details: Staphylococcus aureus
Description: as §5

[6] = test system: Pseudomonas aeruginosa 13437; experiment: Broth microdilution MIC; type: cell-based
Description: as §5

[7] = test system: Enterococcus faecalis 12201; experiment: Broth microdilution MIC; type: cell-based
Description: as §5

[8] = test system: Enterococcus faecalis 775; experiment: Broth microdilution MIC; type: cell-based
Description: as §5

[9] = test system: Escherichia coli NCTC12923; experiment: Broth microdilution MIC; type: cell-based
Description: as §5

[10] = test system: Acinetobacter baumannii AYE; experiment: Broth microdilution MIC; type: cell-based
Description: as §5

[11] = test system: Acinetobacter baumannii 17978; experiment: Broth microdilution MIC; type: cell-based
Description: as §5

[12] = test system: Klebsiella pneumoniae M6; experiment: Broth microdilution MIC; type: cell-based
Description: as §5

[13] = test system: Enterococcus faecium 12204; experiment: Broth microdilution MIC; type: cell-based
Description: as §5

[14] = test system: Pseudomonas aeruginosa PA01; experiment: Broth microdilution MIC; type: cell-based
Description: as §5

COc1ccccc1/C=C1\SC(=O)N(CC(=O)O)C1=O [Compound 3, (Z)-2-(5-(2-Methoxybenzylidene)-2,4-dioxothiazolidin-3-yl)acetic Acid]
% viability 1 ([1]; HepG2, 12.5 μM): 110%
% viability 2 ([1]; HepG2, 12.5 μM): 104%
% viability 3 ([1]; HepG2, 12.5 μM): 92.2%
% viability 1 ([1]; HepG2, 25 μM): 80.2%
% viability 2 ([1]; HepG2, 25 μM): 86.4%
% viability 3 ([1]; HepG2, 25 μM): 91.4%
% viability 1 ([1]; HepG2, 50 μM): 106.4%
% viability 2 ([1]; HepG2, 50 μM): 89.9%
% viability 3 ([1]; HepG2, 50 μM): 98.7%
% viability 1 ([1]; HepG2, 100 μM): 80.2%
% viability 2 ([1]; HepG2, 100 μM): 89.3%
% viability 3 ([1]; HepG2, 100 μM): 82.2%
% viability 1 ([1]; HepG2, 200 μM): 84.2%
% viability 2 ([1]; HepG2, 200 μM): 96.5%
% viability 3 ([1]; HepG2, 200 μM): 92.9%
% viability 1 ([1]; HepG2, 400 μM): 76.2%
% viability 2 ([1]; HepG2, 400 μM): 87.9%
% viability 3 ([1]; HepG2, 400 μM): 87.5%
toxicity to HepG2 cells (in words) ([1]; HepG2, MTT, up to 400 μM (Defensin 100 μM)): effectively nontoxic
% Viability Remaining 1 ([2]; HEK293, 12.5 μM): 73.4%
% Viability Remaining 2 ([2]; HEK293, 12.5 μM): 104%
% Viability Remaining 3 ([2]; HEK293, 12.5 μM): 99.0%
% Viability Remaining 1 ([2]; HEK293, 25 μM): 100%
% Viability Remaining 2 ([2]; HEK293, 25 μM): 86.3%
% Viability Remaining 3 ([2]; HEK293, 25 μM): 83.8%
% Viability Remaining 1 ([2]; HEK293, 50 μM): 78.5%
% Viability Remaining 2 ([2]; HEK293, 50 μM): 80.4%
% Viability Remaining 3 ([2]; HEK293, 50 μM): 92.2%
% Viability Remaining 1 ([2]; HEK293, 100 μM): 84.2%
% Viability Remaining 2 ([2]; HEK293, 100 μM): 93.0%
% Viability Remaining 3 ([2]; HEK293, 100 μM): 91.6%
% Viability Remaining 1 ([2]; HEK293, 200 μM): 82.5%
% Viability Remaining 2 ([2]; HEK293, 200 μM): 89.8%
% Viability Remaining 3 ([2]; HEK293, 200 μM): 94.3%
% Viability Remaining 1 ([2]; HEK293, 400 μM): 72.3%
% Viability Remaining 2 ([2]; HEK293, 400 μM): 106%
% Viability Remaining 3 ([2]; HEK293, 400 μM): 85.6%
toxicity to HEK293 cells (in words) ([2]; HEK293, MTT, up to 400 μM (Defensin 100 μM)): effectively nontoxic
MIC ([3]; Klebsiella pneumoniae 13368, replicate 1, read-out: MIC #1): > 64 µg/mL
MIC ([3]; Klebsiella pneumoniae 13368, replicate 2, read-out: MIC #2): > 64 µg/mL
MIC ([3]; Klebsiella pneumoniae 13368, replicate 3, read-out: MIC #3): > 64 µg/mL
MIC ([4]; EMRSA-16, replicate 1, read-out: MIC #1): > 64 µg/mL
MIC ([4]; EMRSA-16, replicate 2, read-out: MIC #2): > 64 µg/mL
MIC ([4]; EMRSA-16, replicate 3, read-out: MIC #3): > 64 µg/mL
MIC ([5]; MSSA 9144, replicate 1, read-out: MIC #1): > 64 µg/mL
MIC ([5]; MSSA 9144, replicate 2, read-out: MIC #2): > 64 µg/mL
MIC ([5]; MSSA 9144, replicate 3, read-out: MIC #3): > 64 µg/mL
MIC ([6]; Pseudomonas aeruginosa 13437, replicate 1, read-out: MIC #1): > 64 µg/mL
MIC ([6]; Pseudomonas aeruginosa 13437, replicate 2, read-out: MIC #2): > 64 µg/mL
MIC ([6]; Pseudomonas aeruginosa 13437, replicate 3, read-out: MIC #3): > 64 µg/mL
MIC ([7]; Enterococcus faecalis 12201, replicate 1, read-out: MIC #1): > 64 µg/mL
MIC ([7]; Enterococcus faecalis 12201, replicate 2, read-out: MIC #2): > 64 µg/mL
MIC ([7]; Enterococcus faecalis 12201, replicate 3, read-out: MIC #3): > 64 µg/mL
MIC ([8]; Enterococcus faecalis 775, replicate 1, read-out: MIC #1): > 64 µg/mL
MIC ([8]; Enterococcus faecalis 775, replicate 2, read-out: MIC #2): > 64 µg/mL
MIC ([8]; Enterococcus faecalis 775, replicate 3, read-out: MIC #3): > 64 µg/mL
MIC ([9]; Escherichia coli NCTC12923, replicate 1, read-out: MIC #1): > 64 µg/mL
MIC ([9]; Escherichia coli NCTC12923, replicate 2, read-out: MIC #2): > 64 µg/mL
MIC ([9]; Escherichia coli NCTC12923, replicate 3, read-out: MIC #3): > 64 µg/mL
MIC ([10]; replicate 1, read-out: MIC #1): > 64 µg/mL
MIC ([10]; replicate 2, read-out: MIC #2): > 64 µg/mL
MIC ([10]; replicate 3, read-out: MIC #3): > 64 µg/mL
MIC ([11]; Acinetobacter baumannii 17978, replicate 1, read-out: MIC #1): > 64 µg/mL
MIC ([11]; Acinetobacter baumannii 17978, replicate 2, read-out: MIC #2): > 64 µg/mL
MIC ([11]; Acinetobacter baumannii 17978, replicate 3, read-out: MIC #3): > 64 µg/mL
MIC ([12]; Klebsiella pneumoniae M6, replicate 1, read-out: MIC #1): > 64 µg/mL
MIC ([12]; Klebsiella pneumoniae M6, replicate 2, read-out: MIC #2): > 64 µg/mL
MIC ([12]; Klebsiella pneumoniae M6, replicate 3, read-out: MIC #3): > 64 µg/mL
MIC ([13]; Enterococcus faecium 12204, replicate 1, read-out: MIC #1): > 64 µg/mL
MIC ([13]; Enterococcus faecium 12204, replicate 2, read-out: MIC #2): > 64 µg/mL
MIC ([13]; Enterococcus faecium 12204, replicate 3, read-out: MIC #3): > 64 µg/mL
MIC ([14]; Pseudomonas aeruginosa PA01, replicate 1, read-out: MIC #1): > 64 µg/mL
MIC ([14]; Pseudomonas aeruginosa PA01, replicate 2, read-out: MIC #2): > 64 µg/mL
MIC ([14]; Pseudomonas aeruginosa PA01, replicate 3, read-out: MIC #3): > 64 µg/mL
